A short description of experiment [1]: CD refolding (triple helix assembly) at 10° C. monitored at 225 nm. The format is physicochemical. How it is done:
Conversion was assumed to be at 100% after 96 h incubation at 4° C., and max trimer concentration was measured via CD ellipticity at 10° C. Samples were preheated to 80° C. in the sample cuvette for 10 min before being transferred directly to the sample holder held at a constant 10° C. Sample measurement began immediately. Initial time point for analysis was determined by measuring time for a blank (lx PBS) to thermally equilibrate in these conditions.
For all peptides, conversion was assumed to be at 100% after 96 h incubation at 4° C., and max trimer concentration was measured via CD ellipticity at 10° C. Samples were preheated to 80° C. in the sample cuvette for 10 min before being transferred directly to the sample holder held at a constant 10° C. Sample measurement began immediately. Initial time point for analysis was determined by measuring time for a blank (1×PBS) to thermally equilibrate in these conditions. This was set as the zero point for all peptides, as the large jump in CD due to temperature makes the initial jump irresolvable. (A) Rate of assembly of CHP 9 (60, 30, and 15 μM), over 2 h, monitored at 225 nm. (B) Rate of assembly of CHP 9d (30, 15, and 7.5 μM, corresponding to same CHP strand concentration from panel A), over 2 h, monitored at 225 nm. (C) Rate of assembly of CHP 6 (150 and 75 μM), over 2 h, monitored at 225 nm.
FIGS. 12A and 12B show CD refolding at 10° C. of CMPs monitored at 225 nm. CMPs were heated to 80° C. for 5 minutes before being placed into the CD and initial 2 min of monitored data was removed to eliminate thermal transition. Signal was normalized to that of a fully folded peptide.
Circular Dichroism: Circular Dichroism (CD) was measured for all peptides at 225 nm. Melting curves were taken on peptides between 10 and 80° C. at a heating rate of 0.5° C./min, with pauses at each 1° C. Refolding experiments were performed after peptide solutions were incubated at 4° C. for at least 12 hours. Concentrations were normalized to strand concentration.

Experiment [2] concerns crosslinked gelatin films. Description: Binding of CF-labelled CHPs to crosslinked gelatin films at 37° C. with and without preheating. As to conditions: 20 μM, 37° C. overnight, PBS wash 20 h, FIG. 6C. Also noted: species or system porcine. As for the experimental part: FIGS. 3A and 3B show the affinity of CHPs to gelatin films as monitored by fluorescence of conjugated CF fluorophore (492 ex, 533 em). (A) Fluorescence of CHPs bound to crosslinked gelatin after incubation at 37° C. overnight with no workup. (B) Fluorescence of CHPs remaining in crosslinked gelatin after incubation at 37° C. overnight without preheating, followed by washing with 1×PBS at 37° C. (20 h).
(§1) (A) Fraction of peptide remaining in a crosslinked gelatin film after 17 h at 25° C. (10 total washes). Values are normalized to fluorescence remaining in wells after 6 washes at 4° C. (>95% removal of CHPs 9r, 6r, and 5r). All washes performed in 1×PBS. (B) CHPs (15 μM) premixed into 10% porcine gelatin and preheated to 80° C. (10 min) before being added to a 96 well plate. Excess CHP-gelatin mixture was removed, then the premix was incubated at 4° C. for 2 hours. Wells were washed at 4° C., 5 times (>95% removal of CHPs 9r, 6r, and 5r). Wells were then washed for 2 hours (6 washes total) at 25° C. to monitor CHP remaining in the well. (C) Fluorescence of CHPs remaining in crosslinked gelatin after incubation at 37° C. overnight without preheating, followed by washing with 1×PBS at 37° C. (20 h). (D) Fluorescence of CHPs remaining in crosslinked gelatin after incubation at 37° C. overnight (80° C. preheating, 10 min), followed by washing with 1×PBS at 37° C. (20 h).
Dimeric CHPs were assessed for their ability to bind to collagen strands in crosslinked gelatin films. CHP solutions (20 μM in PBS) were added directly to the crosslinked gelatin films. For heated experiments, CHPs were preheated to 80° C. for 10 minutes before addition. Peptides were allowed to fully equilibrate with the gel at 37° C. overnight before being exposed to repeated washes (4×, PBS) at 37° C. to fully remove any non-specifically bound peptide and to determine binding level at body temperature. To measure retention, peptides were bound as previously described, but were subsequently washed with PBS 37° C. (5×1 h, 1×12 h) to measure retention within the gelatin films. […] Additionally, after a period of 20 hours, higher level of the dimeric CHP remained in the gelatin compared to the monomeric CHP.
A major limitation of the use of CHP in vivo, is the requirement of the triple helix to be fully disassembled before being injected. […] For this test, peptide solutions were allowed to warm to room temperature before being added (50 μL, 20 μM) to previously prepared crosslinked gelatin films. Solutions were then incubated at 37° C. overnight before removing the solution. Wells were washed at 37° C. with PBS (20 h) to determine binding. Preheated samples were prepared and incubated in the same way, but with preheating (80° C., 10 min) before being added to the crosslinked gelatin wells.

Experiment [3] deals with crosslinked gelatin films. Description: Retention of CF-labelled CHPs in crosslinked gelatin films (bound at 4° C., washed at 25° C./r.t.). The format is binding, porcine. To be noted: Example 2, washes at 4° C. then 25° C. As for the experimental part: as §1
Binding to Gelatin films. Peptide solutions (20 μM in PBS) were preheated to 80° C. for 10 minutes before being added directly to the crosslinked gelatin films. Peptides were allowed to fully equilibrate with the gel at 4° C. overnight before being exposed to repeated washes (4×30 min) at 4° to fully remove any non-specifically bound peptide. Gelatin wells were then washed at r.t. with PBS (5×1 h, lx 12 h) to measure retention within the gelatin films. […] To eliminate the possibility of these peptides merely becoming physically entrapped within the gelatin after forming triple helix or forming triple helix before binding, binding affinity was verified by producing a premix of the CHPs and Gelatin to eliminated diffusion-limited binding before washing the wells in a similar manner.
Fluorescence Binding: CHP binding to gelatin was monitored by conjugating a fluorescent Carboxyfluorescein (CF) molecule to the N-terminus of each peptide via standard SPPS. Solutions of the fluorescent peptides were heated to 80° C. for 5 min before injecting 50 μL onto a pre-prepared EDC-crosslinked thin gelatin film in a 96 well plate. Peptides incubated overnight at 4° C., then washed with repeated rounds of 4° C. 1×PBS followed by 25° C. 1×PBS.

As to [(GPO)6G3)2KG [6d], the “refolding after two hours of incubation” value in experiment [1] (10° C., same strand concentration) was “almost completely refolded in two hours”. Besides, the “time at which half refolded” value in experiment [1] (CD refolding, 37.5 μM) is 10 min. For the same substance, the “binding to gelatin wells at 37° C. without preheating” value in experiment [2] is “bind more significantly than the GPO9 monomer without preheating”. Moreover, the “binding affinity to gelatin compared to monomeric form” value in experiment [3] was “clear increase in binding affinity”.
